Assay results from PubChem BioAssay AID248 (DTP/NCI, 2004).
Inconclusive results and toxic doses are left out. Cut-off read from the data, not from the text of the source: active = T/C of 150% or more; inactive = T/C below 125%.

Tested on: L1210 leukemia ip in BDF1 mice, survival T/C
Experiment: NCI In Vivo Anticancer Drug Screen. Data for tumor model L1210 Leukemia (intraperitoneal) in B6D2F1 (BDF1) mice
Conditions: endpoint: mean survival time, higher = longer survival
Outline: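 Antitumor effect is assessed in tumor-bearing animals. Survival in the compound arm is compared with a vehicle-dosed control arm and expressed as their quotient.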

[1] = dose: 100.0 mg/kg/injection, schedule: Q04DX003 (ip), vehicle: Klucel (hydroxypropylcellulose) (HPC)

Measured: T/C

CCCCCC(=O)N(CC)C(=NCC)c1ccc(NC(=O)c2ccc(C(=O)Nc3ccc(C(=NCC)N(CC)C(=O)CCCCC)cc3)cc2)cc1
inactive: dose: 3.12 mg/kg/injection, schedule: Q01DX015 (ip), vehicle: methylcellulose (MC) 100 % of control | dose: 6.25 mg/kg/injection, schedule: Q01DX015 (ip), vehicle: methylcellulose (MC) 102 % of control | dose: 12.5 mg/kg/injection, schedule: Q01DX015 (ip), vehicle: methylcellulose (MC) 94 % of control | dose: 25.0 mg/kg/injection, schedule: Q01DX015 (ip), vehicle: methylcellulose (MC) 88 % of control | dose: 50.0 mg/kg/injection, schedule: Q01DX015 (ip), vehicle: methylcellulose (MC) 100 % of control | dose: 100.0 mg/kg/injection, schedule: Q01DX015 (ip), vehicle: methylcellulose (MC) 100 % of control | dose: 200.0 mg/kg/injection, schedule: Q01DX015 (ip), vehicle: methylcellulose (MC) 90 % of control | dose: 400.0 mg/kg/injection, schedule: Q01DX015 (ip), vehicle: methylcellulose (MC) 90 % of control

CN1CCN(C(CO)Cc2ccccc2)CC1 (centres undefined)
inactive: dose: 100.0 mg/kg/injection, schedule: Q01DX001 (ip), vehicle: saline 98 % of control | dose: 200.0 mg/kg/injection, schedule: Q01DX001 (ip), vehicle: saline 104 % of control

CCCCCCCCCCCCCCC[N+](C)(C)C
inactive: dose: 12.5 mg/kg/injection, schedule: Q01DX009 (ip), vehicle: saline 102 % of control | dose: 25.0 mg/kg/injection, schedule: Q01DX009 (ip), vehicle: saline 93 % of control

O=C1C2C=CC=CC1C1C=CC2C1
inactive: dose: 100.0 mg/kg/injection, schedule: Q01DX001 (ip), vehicle: saline with Tween-80 93 % of control | dose: 200.0 mg/kg/injection, schedule: Q01DX001 (ip), vehicle: saline with Tween-80 104 % of control | dose: 400.0 mg/kg/injection, schedule: Q01DX001 (ip), vehicle: saline with Tween-80 101 % of control

CC1(C)CN(CCC#N)C(c2ccc([N+](=O)[O-])cc2)O1 (centres undefined)
inactive: dose: 50.0 mg/kg/injection, schedule: Q01DX001 (ip), vehicle: carboxymethylcellulose (CMC) 106 % of control | dose: 100.0 mg/kg/injection, schedule: Q01DX001 (ip), vehicle: carboxymethylcellulose (CMC) 106 % of control | dose: 200.0 mg/kg/injection, schedule: Q01DX001 (ip), vehicle: carboxymethylcellulose (CMC) 114 % of control | dose: 400.0 mg/kg/injection, schedule: Q01DX001 (ip), vehicle: carboxymethylcellulose (CMC) 108 % of control

Fc1cnc(OC23CC4CC(CC(C4)C2)C3)nc1OC12CC3CC(CC(C3)C1)C2
inactive: [1] 86 % of control | dose: 200.0 mg/kg/injection, schedule: Q04DX003 (ip), vehicle: Klucel (hydroxypropylcellulose) (HPC) 88 % of control | dose: 400.0 mg/kg/injection, schedule: Q04DX003 (ip), vehicle: Klucel (hydroxypropylcellulose) (HPC) 88 % of control

O=C(O/N=C1\C2CCC(C2)C1Cl)c1ccc([N+](=O)[O-])cc1 (centres undefined)
inactive: dose: 25.0 mg/kg/injection, schedule: Q01DX009 (ip), vehicle: saline with Tween-80 94 % of control | dose: 50.0 mg/kg/injection, schedule: Q01DX009 (ip), vehicle: saline with Tween-80 88 % of control | [1] 102 % of control

C=CCC(=O)OCC
inactive: dose: 222.0 mg/kg/injection, schedule: Q01DX Z (ip), vehicle: saline 94 % of control | dose: 333.0 mg/kg/injection, schedule: Q01DX Z (ip), vehicle: saline 108 % of control | dose: 500.0 mg/kg/injection, schedule: Q01DX Z (ip), vehicle: saline 94 % of control

CCOC(=O)c1c(/N=C/c2cc(Br)ccc2O)sc2c1CCCC2
inactive: dose: 100.0 mg/kg/injection, schedule: Q04DX002 (ip), vehicle: saline with Tween-80 109 % of control | dose: 200.0 mg/kg/injection, schedule: Q04DX002 (ip), vehicle: saline with Tween-80 102 % of control | dose: 400.0 mg/kg/injection, schedule: Q04DX002 (ip), vehicle: saline with Tween-80 98 % of control

NCCSC12CC3CC(CC(C3)C1)C2
inactive: dose: 100.0 mg/kg/injection, schedule: Q04DX002 (ip), vehicle: saline 90 % of control | dose: 200.0 mg/kg/injection, schedule: Q04DX002 (ip), vehicle: saline 94 % of control | dose: 400.0 mg/kg/injection, schedule: Q04DX002 (ip), vehicle: saline 96 % of control
